From the supplement of paper PMC10307832

Key:
Assay in all cases: relative viability (nuclei count vs DMSO), 5 days (fraction); higher = more cells survive
[1] = compound: C1=CC2=NC=CN=C2C=C1/C=C/3\C(=O)NC(=O)S3 + CS(=O)(=O)CCNCc1ccc(-c2ccc3ncnc(Nc4ccc(OCc5cccc(F)c5)c(Cl)c4)c3c2)o1 [Lapatinib] (partner 2 µM)
How it was run: (§1)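 Nuclei were stained with Hoechst during a one-step fixation (final 0.05% Triton X-100, 1% formaldehyde, 1 ug/ml Hoechst) carried out 5 days after dosing, then counted on 4× images. The cells, lung cancer lines in 1536-well plates, had been dosed by pin tool the day after seeding with one drug alone or a fixed anchor-drug dose plus five library-drug doses (not always all listed) in √10 steps. Relative viability is the nuclei count in treated wells divided by that in vehicle wells, and each value is the median of duplicate plates.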

BGJ398 + Palbociclib = compound: CCN1CCN(c2ccc(Nc3cc(N(C)C(=O)Nc4c(Cl)c(OC)cc(OC)c4Cl)ncn3)cc2)CC1 [BGJ398] + CC(=O)c1c(C)c2cnc(Nc3ccc(N4CCNCC4)cn3)nc2n(C2CCCC2)c1=O [Palbociclib] (partner 0.5 µM)
How it was run: as §1

BGJ398 + Luminespib = compound: CCN1CCN(c2ccc(Nc3cc(N(C)C(=O)Nc4c(Cl)c(OC)cc(OC)c4Cl)ncn3)cc2)CC1 [BGJ398] + CCNC(=O)c1noc(-c2cc(C(C)C)c(O)cc2O)c1-c1ccc(CN2CCOCC2)cc1 [Luminespib] (partner 0.01 µM)
How it was run: as §1

BGJ398 + Phenformin = compound: CCN1CCN(c2ccc(Nc3cc(N(C)C(=O)Nc4c(Cl)c(OC)cc(OC)c4Cl)ncn3)cc2)CC1 [BGJ398] + N=C(N)NC(=N)NCCc1ccccc1 [Phenformin] (partner 250 µM)
How it was run: as §1

Cell Line	relative viability ([1]; first compound 0.02 µM)	relative viability ([1]; first compound 0.06325 µM)	relative viability ([1]; first compound 0.2 µM)	relative viability ([1]; first compound 0.6325 µM)	relative viability ([1]; first compound 2 µM)	relative viability (BGJ398 + Palbociclib; first compound 0.01 µM)	relative viability (BGJ398 + Palbociclib; first compound 0.03162 µM)	relative viability (BGJ398 + Palbociclib; first compound 0.1 µM)	relative viability (BGJ398 + Palbociclib; first compound 0.3162 µM)	relative viability (BGJ398 + Palbociclib; first compound 1 µM)	relative viability (BGJ398 + Luminespib; first compound 0.01 µM)	relative viability (BGJ398 + Luminespib; first compound 0.03162 µM)	relative viability (BGJ398 + Luminespib; first compound 0.1 µM)	relative viability (BGJ398 + Luminespib; first compound 0.3162 µM)	relative viability (BGJ398 + Luminespib; first compound 1 µM)	relative viability (BGJ398 + Phenformin; first compound 0.01 µM)	relative viability (BGJ398 + Phenformin; first compound 0.03162 µM)	relative viability (BGJ398 + Phenformin; first compound 0.1 µM)	relative viability (BGJ398 + Phenformin; first compound 0.3162 µM)	relative viability (BGJ398 + Phenformin; first compound 1 µM)
NCI-H2126	0.625	0.898	0.758	0.739	0.361	0.374	0.344	0.36	0.351	0.335	0.894	0.973	0.926	0.891	0.832	0.505	0.57	0.541	0.547	0.475
NCI-H3122	1.09	1.03	1.04	0.988	0.972	0.174	0.166	0.175	0.176	0.227	0.0895	0.0973	0.0991	0.0908	0.0986	0.353	0.387	0.373	0.339	0.347
NCI-H1975	0.707	1.24	0.907	0.84	0.791	0.575	0.678	0.672	0.546	0.417	0.218	0.179	0.204	0.237	0.261	0.415	0.409	0.475	0.412	0.356
NCI-H1944	0.834	0.966	0.801	0.735	0.486	0.29	0.333	0.347	0.337	0.344	0.687	0.714	0.787	0.722	0.716	0.198	0.195	0.237	0.188	0.177
LU99A	0.976	1.06	1.07	0.854	0.645	0.426	0.442	0.438	0.392	0.364	0.205	0.248	0.225	0.243	0.254	0.937	0.934	0.925	0.765	0.765
SW 1573	1.09	1.36	0.982	0.928	0.978	0.399	0.419	0.402	0.423	0.404	0.323	0.242	0.209	0.226	0.278	0.312	0.456	0.405	0.407	0.368
NCI-H2347	0.886	0.88	1	0.79	0.852	0.427	0.467	0.477	0.47	0.422	0.396	0.666	0.746	0.471	0.453	0.292	0.602	0.507	0.434	0.496
NCI-H2009	0.873	0.965	1.03	1.03	0.802	0.268	0.222	0.197	0.268	0.241	1.06	1.05	1.03	1.02	0.972	0.454	0.511	0.437	0.374	0.45
HCC-15	0.84	0.87	0.881	0.792	0.84	0.713	0.743	0.79	0.769	0.753	0.316	0.258	0.294	0.37	0.397	0.439	0.497	0.504	0.475	0.496
HCC-78	0.701	0.729	0.91	0.554	0.168	0.44	0.472	0.492	0.455	0.459	–	–	–	–	–	0.67	0.609	0.735	0.731	0.607
NCI-H1299	0.962	1.04	0.946	0.965	0.993	–	–	–	–	–	–	–	–	–	–	–	–	–	–	–
LCLC-103H	–	–	–	–	–	0.42	0.497	0.457	0.478	0.518	0.982	0.961	1.07	0.931	0.708	0.317	0.331	0.336	0.284	0.277
ChaGo-K-1	–	–	–	–	–	0.914	0.959	0.944	0.962	0.923	0.595	0.673	0.724	0.577	0.651	0.488	0.47	0.525	0.487	0.458
NCI-H1648	–	–	–	–	–	0.266	–	0.256	0.273	0.227	–	–	–	–	–	–	–	–	–	–
NCI-H596	1.1	1.25	1.04	1.06	1.04	–	–	–	–	–	1.07	1.01	0.95	0.795	0.768	0.597	0.724	0.842	0.722	0.66
NCI-H1563	0.876	0.854	0.898	0.867	0.873	–	–	–	–	–	0.492	0.525	0.499	0.556	0.544	0.638	0.67	0.595	0.514	0.512
A549	0.893	1.04	1.04	0.9	0.874	–	–	–	–	–	–	–	–	–	–	0.12	0.217	0.154	0.125	0.11
NCI-H522	–	–	–	–	–	1.13	1.07	1.06	0.932	0.859	1.21	1.4	1.09	0.99	1.04	0.585	0.599	0.692	0.593	0.603
NCI-H1623	–	–	–	–	–	–	–	–	–	–	0.544	0.434	0.501	0.472	0.483	0.641	0.427	0.619	0.548	0.497
SW 900	–	–	–	–	–	0.52	0.528	0.534	0.453	0.528	0.133	0.201	0.175	0.167	0.153	0.639	0.702	0.559	0.196	0.279
IA-LM	0.69	–	0.698	0.771	0.65	–	–	–	–	–	–	–	–	–	–	–	–	–	–	–
EBC-1	0.221	0.203	0.191	0.189	0.231	–	–	–	–	–	–	–	–	–	–	–	–	–	–	–
